# ChEMBL document CHEMBL4043247, “Design, synthesis and biological evaluation of 8-substituted-6-hydrazonoindolo[2,1-b]quinazolin-12(6H)-one scaffolds as potential cytotoxic agents: IDO-1 targeting molecular docking studies” (Bioorg Med Chem Lett, 2017)
# Legend:
# [1] = test system: HeLa; test: Cytotoxicity against human HeLa cells after 6 days by MTT assay; type: functional, cell-based; details: 144 h
# [2] = test system: MCF7; test: Cytotoxicity against human MCF7 cells after 6 days by MTT assay; type: functional, cell-based; details: MCF7, 144 h
# [3] = test system: A549; test: Cytotoxicity against human A549 cells after 6 days by MTT assay; type: functional, cell-based; details: A549, 144 h
# [4] = Antioxidant activity assessed as DPPH radical scavenging activity incubated for 30 mins under dark condition by UV-vis spectrophotometric method; type: functional
# [5] = test system: HEK293; test: Cytotoxicity against HEK293 cells after 6 days by MTT assay; type: cell-based; details: Homo sapiens, HEK293, 144 h
SMILES,IC50 [1],IC50 [2],IC50 [3],IC50 [4],IC50 [5]
CC(/C=C(\O)c1ccccc1)=N\N=C1\c2cc(F)ccc2-n2c1nc1ccccc1c2=O,24.5 µM,20.4 µM,32 µM,20.1 µM,–
COc1cccc(/C=N/N=C2/c3cc([N+](=O)[O-])ccc3-n3c2nc2ccccc2c3=O)c1O,38 µM,34.2 µM,40.1 µM,28.7 µM,–
COc1cccc(/C=N/N=C2/c3cc(I)ccc3-n3c2nc2ccccc2c3=O)c1O,29.2 µM,30.4 µM,32.3 µM,10.9 µM,–
N/N=C1/c2cc(-c3ccncc3)ccc2-n2c1nc1ccccc1c2=O,44.1 µM,50.4 µM,47.8 µM,11.2 µM,–
CC(/C=C(\O)c1ccccc1)=N\N=C1\c2cc(I)ccc2-n2c1nc1ccccc1c2=O,18.8 µM,19.9 µM,20.4 µM,11.6 µM,82.5 µM
CC(/C=C(\O)c1ccccc1)=N\N=C1\c2cc(-c3ccc(C(=O)O)cc3)ccc2-n2c1nc1ccccc1c2=O,9.42 µM,9.42 µM,7.19 µM,5.02 µM,64.1 µM
N/N=C1/c2cc(-c3ccc(C(=O)O)cc3)ccc2-n2c1nc1ccccc1c2=O,54.3 µM,61.1 µM,62.2 µM,22 µM,–
CC(/C=C(\O)c1ccccc1)=N\N=C1\c2cc(-c3ccncc3)ccc2-n2c1nc1ccccc1c2=O,12.2 µM,11.6 µM,6.01 µM,6.23 µM,76.1 µM
COc1cccc(/C=N/N=C2/c3cc(Cl)ccc3-n3c2nc2ccccc2c3=O)c1O,36.6 µM,35.4 µM,40.8 µM,22.2 µM,–
COc1cccc(/C=N/N=C2/c3cc(-c4ccncc4)ccc3-n3c2nc2ccccc2c3=O)c1O,24.8 µM,24.8 µM,32.9 µM,4.98 µM,–
COc1cccc(/C=N/N=C2/c3cc(-c4ccc(C(=O)O)cc4)ccc3-n3c2nc2ccccc2c3=O)c1O,32.3 µM,37.1 µM,39.2 µM,5.31 µM,–
N/N=C1/c2cc(F)ccc2-n2c1nc1ccccc1c2=O,67.7 µM,54.6 µM,44.6 µM,16.4 µM,–
N/N=C1/c2cc(I)ccc2-n2c1nc1ccccc1c2=O,51.1 µM,44.9 µM,43.4 µM,24.9 µM,–
CC(/C=C(\O)c1ccccc1)=N\N=C1\c2cc(Cl)ccc2-n2c1nc1ccccc1c2=O,23.6 µM,19.7 µM,18.1 µM,12.5 µM,71 µM
N/N=C1/c2cc(Cl)ccc2-n2c1nc1ccccc1c2=O,55.7 µM,67.5 µM,62.1 µM,19.9 µM,–
N/N=C1/c2cc([N+](=O)[O-])ccc2-n2c1nc1ccccc1c2=O,50.3 µM,53.6 µM,45.6 µM,27.3 µM,–
CC(/C=C(\O)c1ccccc1)=N\N=C1\c2cc([N+](=O)[O-])ccc2-n2c1nc1ccccc1c2=O,33.1 µM,31.5 µM,28.4 µM,29.7 µM,–
COc1cccc(/C=N/N=C2/c3cc(F)ccc3-n3c2nc2ccccc2c3=O)c1O,34.3 µM,35.5 µM,31.2 µM,21.1 µM,–
O=C1O[C@H]([C@@H](O)CO)C(O)=C1O [ASCORBIC ACID],–,–,–,3.48 µM,–
